Assay results from patent US20210292710A1, “METHOD FOR ENHANCING IMMUNE FUNCTION OF IMMUNE CELL AND IMMUNE CELL LINE PRODUCED USING THE SAME” (INDUSTRY-ACADEMIC COOPERATION FOUNDATION, YONSEI UNIVERSITY, priority 2020, published 2021).

Tests used:
[1] = tested on: enzymes involved in glycolysis of T cells; experiment: mRNA expression of enzymes involved in T cell glycolysis; format: cell-based, mouse; conditions: CD3+ T cells activated 72 hours with anti-CD3 and anti-CD28 beads
Description: (§1) Thus, referring to FIG. 4B, the results of mRNA expression of enzymes involved in glycolysis of T cells due to PI3K inhibitor treatment are shown. In this connection, in order to identify enzymes involved in glycolysis of T cells due to PI3K inhibitor treatment, the CD3+ T cells obtained in FIG. 2 are used. Furthermore, the obtained CD3+ T cell is activated for 72 hours using anti-CD3 and anti-CD28 beads to identify mRNA expression of enzymes involved in glycolysis. In this connection, CD3 secretes cytokine as a protein immunomodulator, and CD28 inhibits apoptosis. Only CD3-activated T cells may lead to apoptosis. Therefore, both CD3 and CD28 signals are used to increase T cell function and survival.

T cells = experiment: Extracellular acidification rate (ECAR) of T cells; format: cell-based, mouse
Description: Further, referring to FIG. 5B, the extracellular acidification rate (ECAR) of T cells due to PI3K inhibitor treatment is shown. In this connection, to measure the extracellular acidification rate, the T cell used in FIG. 5A is used, and 1×10^5 T cells are used. Furthermore, the extracellular acidification rate refers to a measurement of glucose degradation via a change in pH resulting from lactate secretion in the medium. In this connection, as the oligomycin is injected to inhibit mitochondrial metabolism, T cells must produce ATP using only glycolysis. Thus, the extracellular acidification rate in phase 3 may mean pure glycolysis capacity. In this connection, 2DG is a molecule in which the 2-hydroxyl group of glucose is replaced with hydrogen and thus glucose may not be degraded. Furthermore, when the T cell is treated with 2DG, the extracellular acdification rate may be controlled in an upstream phase of glucose metabolism. Thus, the extracellular acidification rate in phase 4 may refer to the glucose reserve in the cell.

GLUT1 [2] = experiment: GLUT1 protein expression level of T cell; format: cell-based, mouse; conditions: CD3+ T cells activated 72 hours with anti-CD3 and anti-CD28 beads
Description: as §1, with “survival. Furthermore, referring to FIG. 5A, the result of GLUT1 protein expression level of T cell due to PI3K inhibitor treatment is shown. In this connection, T cell is treated in the same method as in FIG. 4B.” for “survival.”

GLUT1 [3] = experiment: GLUT1 expression in T cells due to PI3K inhibitor and AKT inhibitor treatment; format: cell-based; conditions: both helper and cytotoxic T cells; p<0.05
Text: Furthermore, referring to FIG. 7, the GLUT1 expression level in the T cells due to PI3K inhibitor and AKT inhibitor treatment is shown.

GLUT1 [4] = experiment: GLUT1 expression in T cells due to PI3K inhibitor and mTORC1 inhibitor treatment; format: cell-based; conditions: RAD001 as mTORC1 inhibitor, p<0.05
Text: Furthermore, referring to FIG. 8, AKT and GLUT1 expression levels in T cells due to PI3K inhibitor and mTORC1 inhibitor treatment are shown. In this connection, RAD001 is used as a mTORC1 inhibitor. Furthermore, referring to (b) of FIG. 8, the GLUT1 expression level in T cells due to PI3K inhibitor and mTORC1 inhibitor treatment is shown.

AKT = AKT expression in T cells due to PI3K inhibitor and mTORC1 inhibitor treatment; format: cell-based; conditions: RAD001 as mTORC1 inhibitor, p<0.05
Text: Furthermore, referring to FIG. 8, AKT and GLUT1 expression levels in T cells due to PI3K inhibitor and mTORC1 inhibitor treatment are shown. In this connection, RAD001 is used as a mTORC1 inhibitor. First, referring to (a) of FIG. 8, AKT expression levels in T cells due to PI3K inhibitor and mTORC1 inhibitor treatment are shown. […] This may mean that when mTORC1 is inhibited, AKT expression is reduced, and thus mTORC1 is an important signal capable of rebounding AKT expression.

[5] = tested on: lung-cancer cell line KLN205; experiment: Anti-cancer effect (tumor size) in lung-cancer cell line KLN205; format: in vivo
Description: Referring to FIG. 10A, the results of the anti-cancer effect against the lung-cancer cell line KLN205 due to the PI3K inhibitor treatment are shown. When the cell is treated with the vehicle as a control, the tumor size rapidly increases as the treatment days increase, and then the tumor size on the 15th day is 400 to 500 mm^3. However, when the cell is treated with the PI3K inhibitor, the tumor size is reduced compared to the control. More specifically, when the cell is treated with the PI3K inhibitor BKM 120 at 35 mpk, the tumor size on the 15th day is 200 to 250 mm^3. When the cell is treated with BKM 120 at 50 mpk, the tumor size on day 15 is found to be 90 to 100 mm^3.

[6] = tested on: lung-cancer cell line KLN205; experiment: Percentage of immune cells relative to lung-cancer cell line KLN205; format: in vivo
Text: Referring to FIG. 10B, the percentage of immune cells relative to the lung-cancer cell line KLN205 due to PI3K inhibitor treatment is shown. Referring first to FIG. 10B (a), the percentage of CD3+ CD8+ T cells relative to the lung-cancer cell line KLN205 due to PI3K inhibitor treatment is shown. Next, referring to (b) of FIG. 10B, the percentage of CD3+ CD4+ CD25+ Foxp3 T cells relative to lung-cancer cell line KLN205 due to PI3K inhibitor treatment is shown. Next, referring to (c) of FIG. 10B, the percentage of CD3+ TIL cells relative to the lung-cancer cell line KLN205 due to PI3K inhibitor treatment is shown. Next, referring to (d) of FIG. 10B, the percentage of MDSC cells relative to lung-cancer cell line KLN205 due to PI3K inhibitor treatment is shown.

For `Nc1cc(C(F)(F)F)c(-c2cc(N3CCOCC3)nc(N3CCOCC3)n2)cn1` [BKM 120, buparlisib], the “mRNA expression of each glycolysis enzyme versus spleen T cells and CD3+CD28-stimulated T cells” value [1] was “higher”, the “extracellular acidification rate versus control” value (T cells; phase 1, 1×10^5 T cells) was “higher” and the “extracellular acidification rate versus control” value (T cells; phase 2, glucose injected) was “the difference between the extracellular acidification rates of the T cell group treated with PI3K inhibitor and the control increases”. The “extracellular acidification rate versus control” value (T cells; phase 3, oligomycin injected (glycolysis capacity)) was “higher extracellular acidification rate than that of the control”, the “extracellular acidification rate versus control” value (T cells; phase 4, 2-deoxy-D-glucose (2DG) injected (glucose reserve)) was “higher extracellular acidification rate than that in the control” and the “GLUT1 expression level relative to control” value (GLUT1 [2]) was 6 to 7 times. For the same molecule, the “percentage of T cells expressing GLUT1 among all T cells” value (GLUT1 [2]) was 60 to 70%, the “GLUT1 expression in iPI3K+/iAKT− group relative to iPI3K−/iAKT−, iPI3K−/iAKT+ and iPI3K+/iAKT+ groups” value (GLUT1 [3]) was 2 to 3 times and the “GLUT1 expression in iPI3K+/imTOR− group relative to iPI3K−/imTOR−, iPI3K−/imTOR+ and iPI3K+/imTOR+ groups” value (GLUT1 [4]) was 6 to 7 times. For the same molecule, the “AKT expression in iPI3K+/imTOR− group relative to iPI3K−/imTOR−, iPI3K−/imTOR+ and iPI3K+/imTOR+ groups” value (AKT) was 1.5 to 2.3 times, the tumor size ([5]; 35 mpk, 15th day) was 200 to 250 mm^3 and the tumor size ([5]; 50 mpk, day 15) was 90 to 100 mm^3. The “average percentage of CD3+ CD4+ CD25+ Foxp3 T cells” value ([6]; 35 mpk) was 17%, the “average percentage of CD3+ CD8+ T cells” value ([6]; 35 mpk) was 39% and the “average percentage of MDSC cells” value ([6]; 35 mpk) was 24%. The “distribution of the percentage of CD3+ CD4+ CD25+ Foxp3 T cells” value ([6]; 35 mpk) was 13 to 24%, the “distribution of the percentage of CD3+ CD8+ T cells” value ([6]; 35 mpk) was 35 to 49% and the “distribution of the percentage of MDSC cells” value ([6]; 35 mpk) was 23 to 25%. For the same molecule, the “percentage of CD3+ TIL cells on average” value ([6]; 35 mpk) was 5%, the “average percentage of CD3+ CD4+ CD25+ Foxp3 T cells” value ([6]; 50 mpk) was 15% and the “average percentage of CD3+ CD8+ T cells” value ([6]; 50 mpk) was 41%. For the same molecule, the “average percentage of MDSC cells” value ([6]; 50 mpk) was 18%, the “distribution of the percentage of CD3+ CD4+ CD25+ Foxp3 T cells” value ([6]; 50 mpk) was 12 to 17% and the “distribution of the percentage of CD3+ CD8+ T cells” value ([6]; 50 mpk) was 32 to 50%. For the same molecule, the “distribution of the percentage of MDSC cells” value ([6]; 50 mpk) was 17 to 19% and the “percentage of CD3+ TIL cells on average” value ([6]; 50 mpk) was 6%.
